ChEMBL document CHEMBL4308841, “Synthesis, in vitro antiproliferative activity, and kinase inhibitory effects of pyrazole-containing diarylureas and diarylamides” (Eur J Med Chem, 2018)

Tests used:
A498 = assay: Growth inhibition of human A498 cells assessed as cell growth at 0.1 uM incubated for 48 hrs by sulforhodamine B assay relative to control; type: functional; conditions: A498, 48 h, read-out: Activity
RPMI-8226 = assay: Growth inhibition of human RPMI8226 cells incubated for 48 hrs by sulforhodamine B assay; type: functional, cell-based; conditions: RPMI-8226, 48 h
HCC 2998 [1] = assay: Growth inhibition of human HCC2998 cells assessed as cell growth at 0.1 uM incubated for 48 hrs by sulforhodamine B assay relative to control; type: functional; conditions: HCC 2998, 48 h, read-out: Activity
SK-OV-3 = assay: Growth inhibition of human SKOV3 cells assessed as cell growth at 0.1 uM incubated for 48 hrs by sulforhodamine B assay relative to control; type: functional; conditions: SK-OV-3, 48 h, read-out: Activity
HT-29 [2] = assay: Growth inhibition of human HT-29 cells assessed as cell growth at 100 uM incubated for 48 hrs by sulforhodamine B assay relative to control; type: functional; conditions: HT-29, 48 h, read-out: Activity
HT-29 [3] = assay: Growth inhibition of human HT-29 cells assessed as cell growth at 10 uM incubated for 48 hrs by sulforhodamine B assay relative to control; type: functional; conditions: HT-29, 48 h, read-out: Activity
PC-3 = assay: Growth inhibition of human PC3 cells assessed as cell growth at 100 uM incubated for 48 hrs by sulforhodamine B assay relative to control; type: functional; conditions: PC-3, 48 h, read-out: Activity
786-0 [4] = assay: Growth inhibition of human 786-0 cells assessed as cell growth at 1 uM incubated for 48 hrs by sulforhodamine B assay relative to control; type: functional; conditions: 786-0, 48 h, read-out: Activity
NCI/ADR-RES = assay: Growth inhibition of human NCI/ADR-RES cells assessed as cell growth at 100 uM incubated for 48 hrs by sulforhodamine B assay relative to control; type: functional; conditions: read-out: Activity
786-0 [5] = assay: Growth inhibition of human 786-0 cells assessed as cell growth at 0.01 uM incubated for 48 hrs by sulforhodamine B assay relative to control; type: functional; conditions: 786-0, 48 h, read-out: Activity
SN12C = assay: Growth inhibition of human SN12C cells incubated for 48 hrs by sulforhodamine B assay; type: functional, cell-based
LOX IMVI = assay: Growth inhibition of human LOXIMVI cells assessed as cell growth at 0.1 uM incubated for 48 hrs by sulforhodamine B assay relative to control; type: functional; conditions: read-out: Activity
UACC-62 = assay: Growth inhibition of human UACC62 cells incubated for 48 hrs by sulforhodamine B assay; type: functional, cell-based; conditions: UACC-62, 48 h
Malme-3M = assay: Growth inhibition of human MALME-3M cells assessed as cell growth at 1 uM incubated for 48 hrs by sulforhodamine B assay relative to control; type: functional; conditions: read-out: Activity
SF-295 = assay: Growth inhibition of human SF295 cells assessed as cell growth at 0.1 uM incubated for 48 hrs by sulforhodamine B assay relative to control; type: functional; conditions: SF-295, 48 h, read-out: Activity
COLO 205 = assay: Growth inhibition of human COLO205 cells assessed as cell growth at 100 uM incubated for 48 hrs by sulforhodamine B assay relative to control; type: functional; conditions: COLO 205, 48 h, read-out: Activity
SK-MEL-5 = assay: Growth inhibition of human SK-MEL-5 cells assessed as cell growth at 1 uM incubated for 48 hrs by sulforhodamine B assay relative to control; type: functional; conditions: SK-MEL-5, 48 h, read-out: Activity
HCC 2998 [6] = assay: Growth inhibition of human HCC2998 cells incubated for 48 hrs by sulforhodamine B assay; type: functional, cell-based; conditions: HCC 2998, 48 h
ACHN = assay: Growth inhibition of human ACHN cells assessed as cell growth at 100 uM incubated for 48 hrs by sulforhodamine B assay relative to control; type: functional; conditions: read-out: Activity
SW-620 = assay: Growth inhibition of human SW620 cells assessed as cell growth at 100 uM incubated for 48 hrs by sulforhodamine B assay relative to control; type: functional; conditions: SW-620, 48 h, read-out: Activity
SNB-75 = assay: Growth inhibition of human SNB75 cells assessed as cell growth at 0.01 uM incubated for 48 hrs by sulforhodamine B assay relative to control; type: functional; conditions: SNB-75, 48 h, read-out: Activity
786-0 [7] = assay: Growth inhibition of human 786-0 cells assessed as cell growth at 100 uM incubated for 48 hrs by sulforhodamine B assay relative to control; type: functional; conditions: 786-0, 48 h, read-out: Activity
U-251 = assay: Growth inhibition of human U251 cells incubated for 48 hrs by sulforhodamine B assay; type: functional, cell-based; conditions: U-251, 48 h
NCI-H23 = assay: Growth inhibition of human NCI-H23 cells assessed as cell growth at 0.1 uM incubated for 48 hrs by sulforhodamine B assay relative to control; type: functional; conditions: NCI-H23, 48 h, read-out: Activity
NCI-H522 = assay: Growth inhibition of human NCI-H522 cells incubated for 48 hrs by sulforhodamine B assay; type: functional, cell-based; conditions: NCI-H522, 48 h
HCT-15 = assay: Growth inhibition of human HCT15 cells incubated for 48 hrs by sulforhodamine B assay; type: functional, cell-based; conditions: HCT-15, 48 h
SF-268 = assay: Growth inhibition of human SF268 cells incubated for 48 hrs by sulforhodamine B assay; type: functional, cell-based; conditions: SF-268, 48 h
UACC-257 = assay: Growth inhibition of human UACC257 cells assessed as cell growth at 100 uM incubated for 48 hrs by sulforhodamine B assay relative to control; type: functional; conditions: UACC-257, 48 h, read-out: Activity
[8] = read-out: LC50 (the source's name)
[9] = read-out: pLC50 (the source's name) (converted)

Q: What does the source list for `COc1cc(Cl)cc(-c2nn(-c3cccc(NC(=O)c4cccc(C(F)(F)F)c4)c3)cc2-c2ccncc2)c1`?
A: growth at 0.1 µM (A498): 52%; IC50 (RPMI-8226): 3.13 µM; GI50 (RPMI-8226; read-out: GI50): 3.12 µM; CC50 (RPMI-8226; [8]): > 100 µM; TGI (RPMI-8226; read-out: TGI): > 100 µM; GI50 (RPMI-8226; read-out: pGI50 (converted)): 3.16 µM; CC50 (RPMI-8226; [9]): > 100 µM; TGI (RPMI-8226; read-out: pTGI (converted)): > 100 µM; growth at 0.1 µM (HCC 2998 [1]): 104%; growth at 0.1 µM (SK-OV-3): 105%; growth at 100 µM (HT-29 [2]): 34%; growth at 10 µM (HT-29 [3]): 42.5%; growth at 100 µM (PC-3): 17%; growth at 1 µM (786-0 [4]): 56%; growth at 100 µM (NCI/ADR-RES): 31%; growth at 0.01 µM (786-0 [5]): 99%; GI50 (SN12C; read-out: GI50): > 100 µM; LC50 (SN12C; read-out: LC50): > 100 µM; TGI (SN12C; read-out: TGI): > 100 µM; GI50 (SN12C; read-out: pGI50 (converted)): > 100 µM; LC50 (SN12C; read-out: pLC50 (converted)): > 100 µM; TGI (SN12C; read-out: pTGI (converted)): > 100 µM; growth at 0.1 µM (LOX IMVI): 95%; IC50 (UACC-62): 8.04 µM; GI50 (UACC-62; read-out: GI50): 0.04 µM; CC50 (UACC-62; [8]): > 100 µM; TGI (UACC-62; read-out: TGI): > 100 µM; GI50 (UACC-62; read-out: pGI50 (converted)): 8.13 µM; CC50 (UACC-62; [9]): > 100 µM; TGI (UACC-62; read-out: pTGI (converted)): > 100 µM; growth at 1 µM (Malme-3M): 82%; growth at 0.1 µM (SF-295): 90%; growth at 100 µM (COLO 205): 45%; growth at 1 µM (SK-MEL-5): 57%; GI50 (HCC 2998 [6]; read-out: GI50): 5.56 µM; CC50 (HCC 2998 [6]; [8]): > 100 µM; TGI (HCC 2998 [6]; read-out: TGI): > 100 µM; GI50 (HCC 2998 [6]; read-out: pGI50 (converted)): 6.61 µM; CC50 (HCC 2998 [6]; [9]): > 100 µM; TGI (HCC 2998 [6]; read-out: pTGI (converted)): > 100 µM; growth at 100 µM (ACHN): 40%; growth at 100 µM (SW-620): 57%; growth at 0.01 µM (SNB-75): 90%; growth at 100 µM (786-0 [7]): 44%; IC50 (U-251): 5.56 µM; GI50 (U-251; read-out: GI50): 5.58 µM; CC50 (U-251; [8]): > 100 µM; TGI (U-251; read-out: TGI): > 100 µM; GI50 (U-251; read-out: pGI50 (converted)): 5.62 µM; CC50 (U-251; [9]): > 100 µM; TGI (U-251; read-out: pTGI (converted)): > 100 µM; growth at 0.1 µM (NCI-H23): 97%; GI50 (NCI-H522; read-out: GI50): 1.9 µM; CC50 (NCI-H522; [8]): > 100 µM; TGI (NCI-H522; read-out: TGI): > 100 µM; GI50 (NCI-H522; read-out: pGI50 (converted)): 2 µM; CC50 (NCI-H522; [9]): > 100 µM; TGI (NCI-H522; read-out: pTGI (converted)): > 100 µM; GI50 (HCT-15; read-out: GI50): 3.36 µM; CC50 (HCT-15; [8]): > 100 µM; TGI (HCT-15; read-out: TGI): > 100 µM; GI50 (HCT-15; read-out: pGI50 (converted)): 3.31 µM; CC50 (HCT-15; [9]): > 100 µM; TGI (HCT-15; read-out: pTGI (converted)): > 100 µM; GI50 (SF-268; read-out: GI50): > 100 µM; CC50 (SF-268; [8]): > 100 µM; TGI (SF-268; read-out: TGI): > 100 µM; GI50 (SF-268; read-out: pGI50 (converted)): > 100 µM; CC50 (SF-268; [9]): > 100 µM; TGI (SF-268; read-out: pTGI (converted)): > 100 µM; growth at 100 µM (UACC-257): 52%
